Test results taken from patent publication US20190209645A1, “POTENTIATION OF ANTIBIOTIC ACTIVITY BY A NOVEL CATIONIC PEPTIDE, SPR741” (priority 2016, published 2019).
Bridge positions count the residues as written; N and C are the ends. Square brackets hold non-standard residues; d marks the D form. Peptide text beside a SMILES is read from it. Dab = NCC[C@H](N)C(=O)O

Key:
[1] = test system: Klebsiella pneumoniae (Kp) MDR and clinical isolates; assay: Susceptibility testing (MIC, CLSI M7-A10) of antibiotics with SPR741; format: cell-based; conditions: for order of potentiation of the antibiotics by SPR741: 25 Kp isolates, Mueller-Hinton broth-II with 0, 2 or 8 μg/mL SPR741
Method: (§1) Assays were performed against 25 Escherichia coli (Ec), 25 Klebsiella pneumoniae (Kp), and 17 Acinetobacter baumannii (Ab) MDR and clinical isolates, in Mueller-Hinton broth-II (cation adjusted) containing 0, 2 or 8 μg/mL SPR741. The minimum inhibitory concentration (MIC) was defined as the lowest concentration of antibiotic required to inhibit visible bacterial growth. MIC values were determined for each antibiotic/SPR741 combination and maximum reductions in MIC of the antibiotic in the combination were determined.

[2] = test system: Escherichia coli (Ec) MDR and clinical isolates; assay: as above; format: cell-based; conditions: for order of potentiation of the antibiotics by SPR741: 25 Ec isolates, Mueller-Hinton broth-II with 0, 2 or 8 μg/mL SPR741
Method: as §1

[3] = test system: Acinetobacter baumannii (Ab) MDR and clinical isolates; assay: as above; format: cell-based; conditions: for order of potentiation of the antibiotics by SPR741: 17 Ab isolates, Mueller-Hinton broth-II with 0, 2 or 8 μg/mL SPR741
Method: as §1

[4] = Minimum bactericidal concentration of combinations in the presence of 5% surfactant (Survanta); format: cell-based; conditions: in combination with SPR741; with or without 5% Survanta
Method: (§2) Efficacy was assessed in checkerboard assays. The minimum inhibitory concentration (MIC) of SPR741, antibiotics, and combinations thereof was defined as the lowest concentration that inhibited growth of Ec ATCC 25922, Ab NCTC 12156 and Kp ATCC 43816. Ec BW25113, ΔtolC and ΔacrA were used to assess the contribution of the multi drug efflux pump AcrAB-TolC to susceptibility to the combinations. Interactions were assessed by calculating fractional inhibitory concentration indices (FICI) for each combination in which the MIC differed from compounds in isolation. Interactions were defined as: FICI>4, antagonism; 0.5-4, no interaction; <0.5, synergy. The minimum bactericidal concentration of combinations in the presence of 5% surfactant (Survanta) was also determined.

Gram negative bacteria = conditions: previously shown; cited from earlier work
[5] = test system: Ec BW25113, ΔtolC and ΔacrA; assay: Contribution of efflux pump AcrAB-TolC to susceptibility to the combinations; format: cell-based, Escherichia coli
Method: as §2

[6] = Kp isolates, in combination with SPR741

Row | SMILES | order of potentiation of the antibiotics by SPR741 [1] | order of potentiation of the antibiotics by SPR741 [2] | order of potentiation of the antibiotics by SPR741 [3] | other results
1 | CC[C@H]1OC(=O)[C@H](C)[C@@H](O[C@H]2C[C@@](C)(OC)[C@@H](O)[C@H](C)O2)[C@H](C)[C@@H](O[C@@H]2O[C@H](C)C[C@H](N(C)C)[C@H]2O)[C@](C)(OC)C[C@@H](C)C(=O)[C@H](C)[C@@H](O)[C@]1(C)O [CLR, clarithromycin] | RET>RIF=AZ=CLR>MUP>MEM=FA>AZT | RIF>MUP=FA>AZ=RET>AZT>MEM=CLR | FA>RIF>CLR>RET>MEM>AZ>AZT>MUP | bactericidal activity (minimum bactericidal concentration) of the combination [4]: bactericidal at concentrations similar to the MIC irrespective of the presence of Survanta
2 | CO[C@H]1/C=C/O[C@@]2(C)Oc3c(C)c(O)c4c(O)c(c(/C=N/N5CCN(C)CC5)c(O)c4c3C2=O)NC(=O)/C(C)=C\C=C\[C@H](C)[C@H](O)[C@@H](C)[C@@H](O)[C@@H](C)[C@H](OC(C)=O)[C@@H]1C [RIF, rifampicin] |  |  |  | maximum MIC reduction ([2]; Ec isolates, in combination with SPR741): > 2000 fold; MIC of antibiotic alone ([2]; Ec isolates, without SPR741): > 128 µg/mL
3 | C/C(=C\C(=O)OCCCCCCCCC(=O)O)C[C@@H]1OC[C@H](C[C@@H]2O[C@H]2[C@@H](C)[C@H](C)O)[C@@H](O)[C@H]1O [MUP, mupirocin] | RET>RIF=AZ=CLR>MUP>MEM=FA>AZT | RIF>MUP=FA>AZ=RET>AZT>MEM=CLR | FA>RIF>CLR>RET>MEM>AZ>AZT>MUP | 
4 | C=C[C@]1(C)C[C@@H](OC(=O)CS[C@@H]2C[C@H]3CC[C@@H](C2)N3C)[C@]2(C)[C@H](C)CC[C@]3(CCC(=O)[C@H]32)[C@@H](C)[C@@H]1O [RET, retapamulin] | RET>RIF=AZ=CLR>MUP>MEM=FA>AZT | RIF>MUP=FA>AZ=RET>AZT>MEM=CLR | FA>RIF>CLR>RET>MEM>AZ>AZT>MUP | MIC of antibiotic in the combination [1, 6]: 4 µg/mL; MIC reduction [1, 6]: 32 fold; MIC of antibiotic alone ([1]; Kp isolates, without SPR741): 128 µg/mL
5 | CC(=O)N[C@H](C(=O)N[C@H](CO)C(=O)N[C@H]1CCNC(=O)[C@H]([C@@H](C)O)NC(=O)[C@H](CCN)NC(=O)[C@H](CCN)NC(=O)[C@H](CC(C)C)NC(=O)[C@@H](Cc2ccccc2)NC(=O)[C@H](CCN)NC1=O)[C@@H](C)O [SPR741, Acetyl-Thr-dSer-cy[Dab-Dab-dPhe-Leu-Dab-Dab-Thr]] (Ac-T[dS][Dab][Dab][dF]L[Dab][Dab]T; lactam 3-C) |  |  |  | effect of SPR741 on MIC of antibiotics ([1]; MDR isolates of Kp): effectively reduced the MIC of currently utilized antibiotics; effect of SPR741 on MIC of antibiotics ([2]; MDR isolates of Ec): effectively reduced the MIC of currently utilized antibiotics; effect of SPR741 on MIC of antibiotics ([3]; MDR isolates of Ab): effectively reduced the MIC of currently utilized antibiotics; sensitisation of bacteria to antibiotics (Gram negative bacteria): increase the sensitivity of certain bacteria to Mupirocin, Azithromycin, Fusidic Acid, and Vancomycin; potentiation of antibiotics that are AcrAB-TolC substrates [5]: able to potentiate antibiotics that are substrates of AcrAB-TolC
6 | CC(=O)O[C@H]1C[C@@]2(C)[C@@H](C[C@@H](O)[C@H]3[C@@]4(C)CC[C@@H](O)[C@@H](C)[C@@H]4CC[C@@]32C)/C1=C(\CCC=C(C)C)C(=O)O [FA, fusidic acid] | RET>RIF=AZ=CLR>MUP>MEM=FA>AZT | RIF>MUP=FA>AZ=RET>AZT>MEM=CLR | FA>RIF>CLR>RET>MEM>AZ>AZT>MUP | 
7 | C[C@H]1[C@H](NC(=O)/C(=N\OC(C)(C)C(=O)O)c2csc(N)n2)C(=O)N1S(=O)(=O)O [AZT, aztreonam] |  | RIF>MUP=FA>AZ=RET>AZT>MEM=CLR | FA>RIF>CLR>RET>MEM>AZ>AZT>MUP | 
8 | C[C@@H](O)[C@H]1C(=O)N2C(C(=O)O)=C(S[C@@H]3CN[C@H](C(=O)N(C)C)C3)[C@H](C)[C@H]12 [MEM, meropenem] | RET>RIF=AZ=CLR>MUP>MEM=FA>AZT | RIF>MUP=FA>AZ=RET>AZT>MEM=CLR | FA>RIF>CLR>RET>MEM>AZ>AZT>MUP | 
9 | CC[C@H]1OC(=O)[C@H](C)[C@@H](O[C@H]2C[C@@](C)(OC)[C@@H](O)[C@H](C)O2)[C@H](C)[C@@H](O[C@@H]2O[C@H](C)C[C@H](N(C)C)[C@H]2O)[C@](C)(O)C[C@@H](C)CN(C)[C@H](C)[C@@H](O)[C@]1(C)O [AZ, azithromycin] | RET>RIF=AZ=CLR>MUP>MEM=FA>AZT | RIF>MUP=FA>AZ=RET>AZT>MEM=CLR | FA>RIF>CLR>RET>MEM>AZ>AZT>MUP | 
